This is an account of results in PubChem BioAssay AID2305 (GlaxoSmithKline (GSK), 2010).

The test system of the experiment is P. falciparum 3D7 growth, pLDH absorbance. Description: blood-stage malaria parasite growth potency – strain 3D7, dose response (AID 2305).
One may read the IC50 as the point on the concentration scale where inhibition reaches its midpoint. High values mean a need for much substance, low ones inhibition by little substance. On to `Cc1[nH]c(C)c(-c2ccc(Oc3cccc(Cl)c3)cc2)c(=O)c1Br`, for which the IC50 was 30 nM. This lies in the double-digit nanomolar range.

The compound `COc1ccc2ncc(F)c([C@@H](O)CN3CCC(NCc4cc(C#N)c5c(c4)CCO5)CC3)c2n1` gave an IC50 of 890 nM.

As for `O=C(Nc1ccc2c(c1)CCC2)N[C@H]1CCN(CCCCCNC(=O)[C@@H]2C[C@H]2c2ccc(Cl)c(Cl)c2)C1`, the IC50 came to 1080 nM.

In turn, `CCN(CC)CCOc1ccc(NC(=O)c2oc3ccccc3c2C=Cc2ccccc2)cc1` yielded a half-inhibitory concentration (IC50) of 220 nM.

`COc1ccc(C2(CNCC(O)c3cccc([N+](=O)[O-])c3)CCCCC2)cc1OC` (stereo not given) returned an IC50 of 960 nM.

`Cc1cc(N2Cc3ccccc3C2)nc(Nc2cccc(C#N)c2)n1` registered an IC50 of 170 nM.

In turn, `CC(C)N1CCC(Oc2ccc(CN3CCN(C(c4ccccc4)c4ccc(Cl)cc4)CC3)cc2)CC1` (stereo not given) registered an IC50 of 940 nM.

For the compound `CN(Cc1cc(C(F)(F)F)cc(C(F)(F)F)c1)C(=O)[C@H]1CNC[C@@H]1c1ccc(F)cc1`, the IC50 came to 830 nM.

`Cc1cc(NN=Cc2cccc([N+](=O)[O-])c2)c2ccccc2n1` gave an IC50 of 730 nM. This IC50 and that of the compound before are within 1.5-fold of each other.

In turn, `Cc1[nH]c(C)c(-c2ccc(OCCOc3ccc(C(F)(F)F)cn3)cc2)c(=O)c1Br` displayed an IC50 of 140 nM. Compared with the last compound, the IC50 is about 5.2-fold lower.

The compound `COc1ccccc1C1CN(Cc2coc3ccccc3c2=O)Cc2ccccc2O1` (stereo not given) registered an IC50 of 1320 nM.

Regarding `COc1ccc(Nc2nccc(NCC(O)c3cccc(C(F)(F)F)c3)n2)cc1` (stereo not given), the IC50 was determined as 890 nM.

In the case of `CCc1sc(N2CCN(C)CC2)nc1C(=O)Nc1ccc(F)cc1C(F)(F)F`, the IC50 turned out to be 180 nM.

Compound `CCCOC(=O)C1=C(C)NC2=C(C(=O)CC(c3ccc(OC)c(OC)c3)C2)C1c1cccc(O)c1` (stereo not given) came in with an IC50 of 120 nM.

Regarding `O=S(=O)(NCCN1CCCC1)c1cccc(-c2ccc(CNCc3ccsc3)cc2)c1`, the IC50 came out at 800 nM.

The compound `CCC(C)NS(=O)(=O)c1ccc2nc(Nc3ccc(C)c(Cl)c3)n([C@H](C)C(C)(C)C)c2c1` (stereo not given in full) came in with an IC50 of 380 nM.

As to `COc1ccc2c(CCNc3nc(SC)ncc3C(=O)NCCc3ccc(F)cc3)c[nH]c2c1`, the IC50 was found to be 760 nM. This IC50 is about 2-fold higher than that of the compound before.

For `Cc1ccc(CNC(=O)[C@H](Cc2ccccc2)Nc2cc(C)nc(NCc3ccccc3C)n2)cc1`, the IC50 worked out at 800 nM.

`COc1cc2nc(NCCc3ccccc3)nc(NCc3nccs3)c2cc1OC` registered an IC50 of 530 nM.

`Cc1c(C(=O)NCc2ccncc2)sc2nc(-c3cccc([N+](=O)[O-])c3)cn12`: the IC50 turned out to be 910 nM.

In turn, `Cc1cc(C(=O)Nc2ccc3c(c2)CCN3C2CCN(Cc3ccc(O)cc3)C2)no1` (stereo not given) yielded an IC50 of 770 nM.

Consider `FC(F)(F)c1cccc(CNCC2CCN(CC3CCCCC3)CC2)c1`, for which the IC50 stood at 400 nM. Against the preceding compound, the IC50 is about 1.9-fold lower.

On to `c1ccc(-c2nnc(-c3ccccn3)nc2NC2CCCCC2)cc1`, for which the IC50 turned out to be 910 nM.

For `CN1CCN(c2ccnc3cc4c(cc23)N(Cc2ccccc2)CC4)CC1`, the IC50 turned out to be 1140 nM. The IC50 values of the last two compounds are within 1.5-fold of each other.

`C[C@@H](Oc1cc(-n2cnc3ccc(OCC4CCN(S(C)(=O)=O)CC4)cc32)sc1C(N)=O)c1ccccc1C(F)(F)F` yielded an IC50 of 1020 nM.

For `CCN(CC)CC(O)c1cc(-c2ccc(OC)cc2)nc2cc(Cl)ccc12` (stereo not given), the IC50 was 70 nM.

Regarding `NC(=O)c1c(Cl)nc2ccccc2c1Cl`, the IC50 worked out at 960 nM. This IC50 lies about 14-fold higher than the previous one.

In turn, `FC(F)(F)COc1ccc(CNCCCCCCNCc2ccc(OCC(F)(F)F)c3ccccc23)c2ccccc12` yielded an IC50 of 400 nM.

With `O=C1CC(C(=O)Nc2cccc(-c3cccc(-c4nc5ccccc5[nH]4)c3)c2)c2ccccc2N1` (stereo not given), the IC50 was determined as 980 nM.

Take `Cc1ccc(Sc2ccc(NC(=O)CN3CCN(C(=O)c4ccco4)CC3)cc2)cc1C`: the IC50 turned out to be 910 nM.

`O=c1c2ccccc2nc(C=Cc2ccc([N+](=O)[O-])cc2)n1-c1ccccn1` registered an IC50 of 380 nM.

The compound `O[C@@H](c1ccccc1)[C@@H]1CN(CCC2C[C@@H]3CC[C@H]2C3)CC[C@@]1(O)c1ccccc1` (stereo not given in full) showed an IC50 of 350 nM.

In the case of `CC[C@H]1CN(CCCn2c3ccccc3c3ccccc32)[C@@H](CC)CN1`, the IC50 came out at 1080 nM. Compared with the last compound, the IC50 is about 3.1-fold higher.

In the case of `O=C(N[C@@H](Cc1ccccc1)[C@H](O)CNCCC(F)(F)F)c1cccc(OCC2CC2)c1`, the IC50 is 620 nM.

In the case of `Cc1cccc2[nH]c(-c3ccc(-c4ccc(CNCc5ccc(CN)cc5)cc4)s3)nc12`, the IC50 amounted to 440 nM.
